Experimental findings from patent US8211606B2, “Coloring compound, yellow toner, sheet for heat-sensitive transfer recording, and ink” (Canon Kabushiki Kaisha, priority 2007, dated 2012) are described below.

Molecules are shown by their SMILES.

Data set [1] in a line: Solubility check: solubility of coloring compound in chloroform at room temperature. In kind it is physicochemical. As for the experimental part: A solubility test was performed to measure the solubility of a coloring compound in chloroform at room temperature. The solubility was evaluated as described below.
A: 5% or more solubility in chloroform
B: 1% or more and less than 5% solubility in chloroform
C: less than 1% solubility in chloroform
A solubility of 1% or more in chloroform was determined to indicate high compatibility with resin.

Data set [2] can be described thus: Light resistance evaluation of coloring compound on paper, Sun Tester irradiation (color difference ΔE). The format is physicochemical. Particulars: 765 w/m^2, 50° C., irradiation time 20 hours, on CLC color copy paper. As for the experimental part:
A coloring compound was dissolved in tetrahydrofuran/cyclohexanone (=1/1 (v/v)) to prepare a 0.04 mol/L solution, which was then filtered with a filter (Φ0.2 μm). The prepared coloring compound solution was applied on CLC color copy paper (manufactured by Canon Inc.) by a bar coat method (Bar No. 3) and air-dried overnight. The test paper was then subjected to an irradiation experiment using Sun Tester (XF-180CPS, manufactured by Shimadzu Corporation) under the conditions of an illuminance of 765 w/m^2, a temperature of 50° C. and an irradiation time of 20 hours. The test paper before and after irradiation was analyzed by means of SpectroLino (from Gretag Machbeth). Optical density and chromaticity (L*, a*, b*) were determined on the basis of the L*a*b* color system. Color difference (ΔE) was calculated according to the following equation on the basis of measurements of the color characteristics.
The evaluation was performed as below.
A: The ΔE value is less than 10.
B: The ΔE value is 10 or more and less than 20.
C: The ΔE value is 20 or more.
The ΔE value of less than 20 was determined to indicate good light resistance.

As for `Cc1c(N=Nc2ccccc2[N+](=O)[O-])c(O)n(-c2ccccc2)c(=O)c1C(N)=O` [(15)], the Solubility result in data set [1] is “B (1% or more and less than 5% solubility in chloroform)”. Further, the “Light Resistance” value in data set [2] is on record as “A (The ΔE value is less than 10.)”.
`CCCCC(CC)Cn1c(O)c(N=Nc2ccc(C(F)(F)F)cc2[N+](=O)[O-])c(C)c(C(N)=O)c1=O` (stereo not shown) [(12)]: in data set [1], the Solubility result is “A (5% or more solubility in chloroform)”. Also, in data set [2], the “Light Resistance” value was “A (The ΔE value is less than 10.)”.
Take `CCCCC(C)(CC)NC(=O)c1c(C)c(N=Nc2ccc(C(F)(F)F)cc2[N+](=O)[O-])c(O)[nH]c1=O` (stereo not shown) [(14)]: in data set [1], the Solubility entry was “B (1% or more and less than 5% solubility in chloroform)”. The “Light Resistance” value in data set [2] is listed as “A (The ΔE value is less than 10.)”.
Regarding `Cc1c(N=Nc2ccccc2[N+](=O)[O-])c(O)n(Cc2ccccc2)c(=O)c1C(N)=O` [(16)], in data set [1], the Solubility result was “B (1% or more and less than 5% solubility in chloroform)”. In addition, the “Light Resistance” value in data set [2] was “A (The ΔE value is less than 10.)”.
On to `CCCCC(CC)Cn1c(O)c(/N=N/c2ccc(C(F)(F)F)cc2[N+](=O)[O-])c(C)c(C(=O)NC(C)(C)C)c1=O` (stereo not shown) [Compound (5)], for which the Solubility result in data set [1] is “A (5% or more solubility in chloroform)”. Moreover, in data set [2], the “Light Resistance” value is “A (The ΔE value is less than 10.)”.
As for `CCCCC(CC)Cn1c(O)c(N=Nc2ccccc2[N+](=O)[O-])c(C)c(C(=O)NC2CCCC2)c1=O` (stereo not shown) [(17)], the Solubility result in data set [1] is “A (5% or more solubility in chloroform)”. Besides, the “Light Resistance” value in data set [2] was “B (The ΔE value is 10 or more and less than 20.)”.
For the compound `CCn1c(O)c(/N=N/c2ccccc2[N+](=O)[O-])c(C)c(C(N)=O)c1=O` [(2), reference compound], the Solubility entry in data set [1] is recorded as “C (less than 1% solubility in chloroform)”. In data set [2], the “Light Resistance” value is reported as “C (The ΔE value is 20 or more.)”.
For the compound `CCCCC(CC)Cn1c(O)c(/N=N/c2ccccc2[N+](=O)[O-])c(C)c(C#N)c1=O` (stereo not shown) [Comparative Compound (1), reference compound], the Solubility result in data set [1] is “B (1% or more and less than 5% solubility in chloroform)”. In addition, the “Light Resistance” value in data set [2] is “C (The ΔE value is 20 or more.)”.
Turning to `CCCCC(CC)Cn1c(O)c(N=Nc2cc(F)c(F)cc2[N+](=O)[O-])c(C)c(C(N)=O)c1=O` (stereo not shown) [(7)], the Solubility result in data set [1] was “A (5% or more solubility in chloroform)”. For the same compound, the “Light Resistance” value in data set [2] is “B (The ΔE value is 10 or more and less than 20.)”.
`CCCCC(CC)Cn1c(O)c(/N=N/c2ccc(F)cc2[N+](=O)[O-])c(C)c(C(N)=O)c1=O` (stereo not shown) [Compound (6)]: the Solubility entry in data set [1] was “B (1% or more and less than 5% solubility in chloroform)”. Besides, in data set [2], the “Light Resistance” value is reported as “A (The ΔE value is less than 10.)”.
Turning to `CCCCC(CC)Cn1c(O)c(N=Nc2ccc(C#N)cc2[N+](=O)[O-])c(C)c(C(N)=O)c1=O` (stereo not shown) [(11)], the Solubility entry in data set [1] is “A (5% or more solubility in chloroform)”. Moreover, the “Light Resistance” value in data set [2] was “A (The ΔE value is less than 10.)”.
In the case of `CCCCC(CC)Cn1c(O)c(N=Nc2c(Br)cc(C(F)(F)F)cc2[N+](=O)[O-])c(C)c(C(N)=O)c1=O` (stereo not shown) [(10)], the Solubility entry in data set [1] is “B (1% or more and less than 5% solubility in chloroform)”. In addition, the “Light Resistance” value in data set [2] is given as “A (The ΔE value is less than 10.)”.
With `CCCCC(CC)Cn1c(O)c(N=Nc2c([N+](=O)[O-])cc(F)c(F)c2F)c(C)c(C(N)=O)c1=O` (stereo not shown) [(8)], the Solubility result in data set [1] is on record as “A (5% or more solubility in chloroform)”. In addition, the “Light Resistance” value in data set [2] is “B (The ΔE value is 10 or more and less than 20.)”.
For `CCCCC(CC)Cn1c(O)c(/N=N/c2ccccc2[N+](=O)[O-])c(C)c(C(N)=O)c1=O` (stereo not shown) [Compound (4)], the Solubility entry in data set [1] is “B (1% or more and less than 5% solubility in chloroform)”. The “Light Resistance” value in data set [2] is reported as “A (The ΔE value is less than 10.)”.
Take `CCn1c(O)c(N=Nc2ccc(C(F)(F)F)cc2[N+](=O)[O-])c(-c2ccccc2)c(C(=O)NC(C)(C)C)c1=O` [(13)]: the Solubility result in data set [1] is listed as “A (5% or more solubility in chloroform)”. Further, the “Light Resistance” value in data set [2] was “B (The ΔE value is 10 or more and less than 20.)”.
As to `CCCCC(CC)Cn1c(O)c(N=Nc2ccc(C(F)(F)F)cc2[N+](=O)[O-])c(C)c(C(=O)NCc2ccccc2)c1=O` (stereo not shown) [(18)], in data set [1], the Solubility result is on record as “A (5% or more solubility in chloroform)”. Moreover, the “Light Resistance” value in data set [2] was “B (The ΔE value is 10 or more and less than 20.)”.
In the case of `CCCCC(CC)Cn1c(O)c(N=Nc2c([N+](=O)[O-])cc(C(F)(F)F)cc2[N+](=O)[O-])c(C)c(C(N)=O)c1=O` (stereo not shown) [(9)], in data set [1], the Solubility entry was “B (1% or more and less than 5% solubility in chloroform)”. The “Light Resistance” value in data set [2] is “B (The ΔE value is 10 or more and less than 20.)”.
